Reference: patent publication US8030494B2, “Optical recording material” (Adeka Corporation, priority 2006, dated 2011)

Test: Evaluation of light resistance (absorbance retention of spin-coated film after irradiation)
Assay type: physicochemical
Conditions: film spin-coated from 1% by mass 2,2,3,3-tetrafluoropropanol solution on polycarbonate plate; 55000 lux light for 100 hours; at λmax before irradiation
Protocol: The compounds obtained in Preparation Examples 1 to 8 and comparative compound No. 2 were evaluated for light resistance as follows. Each of the compounds was dissolved in 2,2,3,3-tetrafluoropropanol to prepare a 1% by mass solution. The solution was applied to a 20 mm by 20 mm polycarbonate plate by spin coating at 2000 rpm for 60 seconds to prepare a specimen. The specimen was irradiated with 55000 lux light for 100 hours. The UV absorption spectra measured before and after the irradiation were compared to calculate an absorbance retention at the λmax of the UV absorption spectrum before the irradiation.

## C[N+]1=C(/C=C/c2ccccc2)C(C)(Cc2ccccc2)c2c1ccc1ccccc21 (stereo not shown) [comparative compound No. 2]
  Absorbance Retention (%): 0%
